Results published in patent publication US20100267561A1, “HERBICIDAL PYRIDAZINONE DERIVATIVES” (priority 2007, published 2010).

How the values were obtained:
Experiment in all cases: Test B pre-/postemergence plant response
Type in all cases: in vivo
[1] = tested on: blackgrass (Alopecurus myosuroides)
Source text: (§1) Seeds of plant species selected from blackgrass (Alopecurus myosuroides), downy bromegrass (Bromus tectorum), green foxtail (Setaria viridis), Italian ryegrass (Lolium multiflorum), wheat (Triticum aestivum), wild oat (Avena fatua), catchweed bedstraw (Galium aparine), bermudagrass (Cynodon dactylon), surinam grass (Brachiaria decumbens), cocklebur (Xanthium strumarium), corn (Zea mays), large crabgrass (Digitaria sanguinalis), woolly cupgrass (Eriochloa villosa), giant foxtail (Setaria faberii), goosegrass (Eleusine indica), johnsongrass (Sorghum halepense), kochia (Kochia scoparia), lambsquarters (Chenopodium album), morningglory (Ipomoea coccinea), eastern black (E.B.) nightshade (Solanum ptycanthum), yellow nutsedge (Cyperus esculentus), pigweed (Amaranthus retroflexus), common ragweed (Ambrosia elation), Russian thistle (Salsola iberica), soybean (Glycine max), common (oilseed) sunflower (Helianthus annuus), and velvetleaf (Abutilon theophrasti) were planted and treated preemergence with test chemicals formulated in a non-phytotoxic solvent mixture which included a surfactant.
(§2) At the same time, plants selected from these crop and weed species and also winter barley (Hordeum vulgare), canarygrass (Phalaris minor), chickweed (Stellaria media) and windgrass (Apera spica-venti) were treated with postemergence applications of some of the test chemicals formulated in the same manner. Plants ranged in height from 2 to 18 cm (1- to 4-leaf stage) for postemergence treatments.
(§3) Plant species in the flooded paddy test consisted of rice (Oryza sativa), umbrella sedge (Cyperus difformis), ducksalad (Heteranthera limosa) and barnyardgrass (Echinochloa crus-galli) grown to the 2-leaf stage for testing. At time of treatment, test pots were flooded to 3 cm above the soil surface, treated by application of test compounds directly to the paddy water, and then maintained at that water depth for the duration of the test. Treated plants and controls were maintained in a greenhouse for 13 to 15 days, after which time all species were compared to controls and visually evaluated. Plant response ratings, summarized in Table B, are based on a scale of 0 to 100 where 0 is no effect and 100 is complete control. A dash (-) response means no test result.

[2] = tested on: yellow nutsedge (Cyperus esculentus)
Source text: as §1, §2, §3

[3] = tested on: eastern black (E.B.) nightshade (Solanum ptycanthum); conditions: Preemergence
Source text: as §1, §2, §3

[4] = tested on: common ragweed (Ambrosia elation)
Source text: as §1, §2, §3

[5] = tested on: cocklebur (Xanthium strumarium)
Source text: as §1, §2, §3

[6] = tested on: common (oilseed) sunflower (Helianthus annuus); conditions: Preemergence
Source text: as §1, §2, §3

[7] = tested on: wild oat (Avena fatua)
Source text: as §1, §2, §3

[8] = tested on: surinam grass (Brachiaria decumbens)
Source text: as §1, §2, §3

[9] = tested on: wheat (Triticum aestivum)
Source text: as §1, §2, §3

[10] = tested on: woolly cupgrass (Eriochloa villosa)
Source text: as §1, §2, §3

[11] = tested on: green foxtail (Setaria viridis)
Source text: as §1, §2, §3

[12] = tested on: downy bromegrass (Bromus tectorum)
Source text: as §1, §2, §3

[13] = tested on: corn (Zea mays)
Source text: as §1, §2, §3

[14] = Postemergence, 31 g ai/ha, scale 0 to 100, 0 no effect, 100 complete control
[15] = Postemergence, 62 g ai/ha, scale 0 to 100
[16] = Postemergence, 125 g ai/ha, scale 0 to 100
[17] = Postemergence, 250 g ai/ha, scale 0 to 100
[18] = Preemergence, 31 g ai/ha, 0 to 100 scale, 0 no effect, 100 complete control
[19] = Preemergence, 62 g ai/ha, scale 0 to 100
[20] = Preemergence, 125 g ai/ha, scale 0 to 100
[21] = Preemergence, 250 g ai/ha, scale 0 to 100
[22] = 31 g ai/ha, 0 to 100 scale, 0 no effect, 100 complete control

5-[3-(4-chlorophenyl)-5-methyl-1H-pyrazol-1-yl]-1,6-dihydro-1-methyl-6-oxo-4-pyridazinyl-1-methylethyl carbonate [Compound 7]
70: Plant response rating, Blackgrass [1, 18] | Plant response rating, Oat, Wild [7, 19] | Plant response rating, Cupgrass, Woolly [10, 18] | Plant response rating, Cupgrass, Woolly [10, 19]
20: Plant response rating, Ragweed [4, 21]
30: Plant response rating, Nightshade, E. B. [3, 22] | Plant response rating, Nightshade, E. B. ([3]; 62 g ai/ha, scale 0 to 100)
95: Plant response rating, Oat, Wild [7, 14] | Plant response rating, Oat, Wild [7, 15] | Plant response rating, Oat, Wild [7, 16] | Plant response rating, Oat, Wild [7, 17] | Plant response rating, Wheat [9, 16] | Plant response rating, Wheat [9, 21] | Plant response rating, Corn [13, 19]
80: Plant response rating, Oat, Wild [7, 20] | Plant response rating, Wheat [9, 15] | Plant response rating, Wheat [9, 20]
35: Plant response rating, Bromegrass, Downy [12, 18] | Plant response rating, Bromegrass, Downy [12, 19]
98: Plant response rating, Surinam Grass [8, 18] | Plant response rating, Corn [13, 20]
100: Blackgrass plant response rating ([1]; 250 g ai/ha, preemergence, 0-100 scale) | Plant response rating, Blackgrass [1, 16] | Plant response rating, Blackgrass [1, 17] | Plant response rating, Blackgrass [1, 20] | Plant response rating, Nightshade, E. B. ([3]; 125 g ai/ha, scale 0 to 100) | Plant response rating, Nightshade, E. B. ([3]; 250 g ai/ha, scale 0 to 100) | Plant response rating, Surinam Grass [8, 14] | Plant response rating, Surinam Grass [8, 15] | Plant response rating, Surinam Grass [8, 16] | Plant response rating, Surinam Grass [8, 17] | Plant response rating, Surinam Grass [8, 19] | Plant response rating, Surinam Grass [8, 20] | Plant response rating, Surinam Grass [8, 21] | Plant response rating, Cupgrass, Woolly [10, 14] | Plant response rating, Cupgrass, Woolly [10, 15] | Plant response rating, Cupgrass, Woolly [10, 16] | Plant response rating, Cupgrass, Woolly [10, 17] | Plant response rating, Cupgrass, Woolly [10, 21] | Plant response rating, Foxtail, Green [11, 15] | Plant response rating, Foxtail, Green [11, 16] | Plant response rating, Foxtail, Green [11, 17] | Plant response rating, Foxtail, Green [11, 18] | Plant response rating, Foxtail, Green [11, 19] | Plant response rating, Foxtail, Green [11, 20] | Plant response rating, Foxtail, Green [11, 21] | Plant response rating, Corn [13, 21]
90: Plant response rating, Blackgrass [1, 15] | Plant response rating, Corn [13, 14] | Plant response rating, Corn [13, 15] | Plant response rating, Corn [13, 16] | Plant response rating, Corn [13, 17] | Plant response rating, Corn [13, 18]
75: Plant response rating, Foxtail, Green [11, 14]
65: Plant response rating, Wheat [9, 19]
85: Plant response rating, Blackgrass [1, 14] | Plant response rating, Blackgrass [1, 19] | Plant response rating, Oat, Wild [7, 21] | Plant response rating, Cupgrass, Woolly [10, 20]
0: Plant response rating, Nutsedge, Yellow [2, 14] | Plant response rating, Nutsedge, Yellow [2, 15] | Plant response rating, Nutsedge, Yellow [2, 16] | Plant response rating, Nutsedge, Yellow [2, 17] | Plant response rating, Nutsedge, Yellow [2, 18] | Plant response rating, Nutsedge, Yellow [2, 19] | Plant response rating, Nutsedge, Yellow [2, 20] | Plant response rating, Nutsedge, Yellow [2, 21] | Plant response rating, Ragweed [4, 14] | Plant response rating, Ragweed [4, 15] | Plant response rating, Ragweed [4, 16] | Plant response rating, Ragweed [4, 17] | Plant response rating, Ragweed [4, 18] | Plant response rating, Ragweed [4, 19] | Plant response rating, Ragweed [4, 20] | Plant response rating, Cocklebur [5, 14] | Plant response rating, Cocklebur [5, 15] | Plant response rating, Cocklebur [5, 16] | Plant response rating, Cocklebur [5, 17] | Plant response rating, Cocklebur [5, 18] | Plant response rating, Cocklebur [5, 19] | Plant response rating, Cocklebur [5, 20] | Plant response rating, Cocklebur [5, 21] | Plant response rating, Sunflower [6, 22] | Plant response rating, Sunflower ([6]; 62 g ai/ha, scale 0 to 100) | Plant response rating, Sunflower ([6]; 125 g ai/ha, scale 0 to 100) | Plant response rating, Sunflower ([6]; 250 g ai/ha, scale 0 to 100) | Plant response rating, Oat, Wild [7, 18] | Plant response rating, Wheat [9, 18] | Plant response rating, Bromegrass, Downy [12, 14] | Plant response rating, Bromegrass, Downy [12, 15] | Plant response rating, Bromegrass, Downy [12, 16] | Plant response rating, Bromegrass, Downy [12, 17]
60: Plant response rating, Wheat [9, 14] | Plant response rating, Bromegrass, Downy [12, 20] | Plant response rating, Bromegrass, Downy ([12]; Preemergence, 250 g ai/ha, scale 0 to 100 (0 no effect, 100 complete control))
